Like-named read-outs stand apart in the source and are kept apart here. Some results are limits rather than exact numbers.

Data set [1] deals with T1, EP2 (Homo sapiens, UniProt P43116). As to the kind of experiment: EP2 flipr functional assay. It is filed as cell-based. The method, then: (§1) Data from running binding and activity studies on the compounds of the invention were carried out as described in U.S. Pat. No. 7,427,685, the contents of which are incorporated herein by reference.
Data set [2] concerns the target T1, EP2. As to the kind of experiment: EP2 cAMP assay. It is filed as cell-based. The method, then:
as §1
Background: Cyclic AMP is a second messenger, typically raised through Gs and lowered through Gi signalling.

Data set [3] deals with T1, EP2. As to the kind of experiment: EP2 binding. The method, then:
as §1

The target of data set [4] is T2, EP4 (Homo sapiens, UniProt P35408). Briefly: EP4 flipr functional assay. In kind it is cell-based. How it is done: as §1
The target in data set [5] is T2, EP4. Briefly: EP4 binding. How it is done:
as §1

In data set [6] the target is T3, hEP3A (Homo sapiens, UniProt P43115).
T3 sequence (P43115 1-390): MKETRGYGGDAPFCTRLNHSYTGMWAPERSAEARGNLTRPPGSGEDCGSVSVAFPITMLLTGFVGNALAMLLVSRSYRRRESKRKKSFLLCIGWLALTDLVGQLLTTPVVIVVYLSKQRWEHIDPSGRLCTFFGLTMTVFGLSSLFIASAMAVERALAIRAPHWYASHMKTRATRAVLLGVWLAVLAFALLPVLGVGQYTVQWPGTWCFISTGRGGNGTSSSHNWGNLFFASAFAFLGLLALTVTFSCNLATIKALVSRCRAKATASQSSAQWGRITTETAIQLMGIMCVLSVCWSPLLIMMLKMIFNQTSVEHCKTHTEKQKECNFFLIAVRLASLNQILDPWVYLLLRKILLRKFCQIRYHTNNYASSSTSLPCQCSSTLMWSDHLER
As to the kind of experiment: Other receptors functional assay, hEP3A. In kind it is cell-based. How it is done: as §1

Data set [7] has as its system laser-induced hypertensive monkeys. To be noted: 0.05%, one single day dose, maximum at 6 h. How it is done: (§2) U.S. Pat. No. 7,091,231 describes the methods used for these in vivo tests.
(§3) Isopropyl 5-(2-(3′,4-difluoro-[1,1′-biphenyl]-3-ylcarboxamido)ethyl)thiophene-2-carboxylate was tested in normotensive dogs at 0.05%, dosing once daily for 5 days. […] This compound was also tested in laser-induced hypertensive monkeys, using one single day dose.
(§4) 2-Hydroxyethyl 5-(2-(3′,4-difluoro-[1,1′-biphenyl]-3-ylcarboxamido)ethyl)thiophene-2-carboxylate was tested in normotensive dogs at 0.05%, dosing once daily for 5 days. […] This compound was also tested in laser-induced hypertensive monkeys, using one single day dose.

In data set [8] the test system is normotensive dogs. The conditions noted are these: 0.05%, once daily for 5 days. The method, then: as §2, §3, §4

T1 sequence (P43116 whole entry): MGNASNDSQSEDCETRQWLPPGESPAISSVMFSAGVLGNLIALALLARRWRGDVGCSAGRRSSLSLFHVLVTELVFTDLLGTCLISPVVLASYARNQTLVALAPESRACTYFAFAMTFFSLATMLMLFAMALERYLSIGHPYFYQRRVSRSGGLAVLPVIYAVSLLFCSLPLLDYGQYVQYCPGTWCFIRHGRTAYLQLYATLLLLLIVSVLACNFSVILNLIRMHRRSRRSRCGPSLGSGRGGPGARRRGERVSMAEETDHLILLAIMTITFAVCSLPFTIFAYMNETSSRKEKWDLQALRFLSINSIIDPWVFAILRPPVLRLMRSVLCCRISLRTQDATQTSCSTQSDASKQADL
T2 sequence (P35408 whole entry): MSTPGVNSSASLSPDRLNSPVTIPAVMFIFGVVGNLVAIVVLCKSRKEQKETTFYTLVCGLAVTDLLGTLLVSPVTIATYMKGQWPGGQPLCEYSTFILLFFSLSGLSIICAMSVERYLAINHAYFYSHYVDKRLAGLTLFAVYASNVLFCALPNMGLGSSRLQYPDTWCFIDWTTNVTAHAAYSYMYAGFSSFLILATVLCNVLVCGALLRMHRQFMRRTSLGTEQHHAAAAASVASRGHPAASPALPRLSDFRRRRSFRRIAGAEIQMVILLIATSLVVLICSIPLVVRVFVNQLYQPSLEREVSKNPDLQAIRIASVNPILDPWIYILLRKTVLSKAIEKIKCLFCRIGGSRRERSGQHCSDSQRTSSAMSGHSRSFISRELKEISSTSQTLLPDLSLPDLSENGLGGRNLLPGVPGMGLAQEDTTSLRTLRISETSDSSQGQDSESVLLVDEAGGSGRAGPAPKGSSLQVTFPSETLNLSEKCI

Take `O=C(O)c1ccc(CCCNC(=O)c2cc(-c3cccc(F)c3)ccc2F)s1` [Compound 3, 5-(3-(3′,4-Difluoro-[1,1′-biphenyl]-3-ylcarboxamido)propyl)thiophene-2-carboxylic acid]: the concentration for a half-maximal effect (EC50) (commonly the midpoint of the concentration-response curve) is 31 nM in data set [1], 5 nM in data set [2], more than 10000 nM in data set [4] and 3290 nM in data set [6]. The Ki (usually a dissociation constant, usually derived from enzyme kinetics or from competition with a known ligand) in data set [3] was 177 nM; in data set [5], 1480 nM.

On to `O=C(O)c1ccc(CNC(=O)c2cc(-c3cccc(F)c3)ccc2F)s1` [Compound 2, 5-((3′,4-Difluoro-[1,1′-biphenyl]-3-ylcarboxamido)methyl)thiophene-2-carboxylic acid], for which the concentration for a half-maximal effect (EC50) in data set [1], in data set [2] and in data set [4] was more than 10000 nM each time. Besides, the results for the Ki in data set [3] and in data set [5] were 631 nM and 845 nM, respectively.

Turning to `O=C(OCCO)c1ccc(CCNC(=O)c2cc(-c3cccc(F)c3)ccc2F)s1` [2-Hydroxyethyl 5-(2-(3′,4-difluoro-[1,1′-biphenyl]-3-ylcarboxamido)ethyl)thiophene-2-carboxylate], in data set [7], the “maximum IOP decrease from baseline” value worked out at 13.1 mmHg and the “maximum IOP decrease from baseline (percent)” value is 31%. Also, in data set [8] (maximum at 52 h), the “maximum intraocular pressure (IOP) decrease from baseline” value was 6.6 mmHg and the “maximum intraocular pressure (IOP) decrease from baseline (percent)” value is 50%. Further, the “maximum ocular surface hyperemia (OSH) score” value in data set [8] (maximum at 54 h) is 1.6.

`O=C(NCCc1ccc(C(=O)O)s1)c1cccc(-c2cccc(F)c2)c1` [Compound 5, 5-(2-(3′-Fluoro-[1,1′-biphenyl]-3-ylcarboxamido)ethyl)thiophene-2-carboxylic acid]: the half-maximal effective concentration (EC50) in data set [1] is 26 nM; in data set [2], 8 nM; in data set [4], 6020 nM; in data set [6], more than 10000 nM. Besides, the Ki in data set [3] was determined as 150 nM; in data set [5], 739 nM.

Regarding `CC(C)OC(=O)c1ccc(CCNC(=O)c2cc(-c3cccc(F)c3)ccc2F)s1` [Isopropyl 5-(2-(3′,4-difluoro-[1,1′-biphenyl]-3-ylcarboxamido)ethyl)thiophene-2-carboxylate], in data set [7], the “maximum IOP decrease from baseline” value is given as 6.9 mmHg and the “maximum IOP decrease from baseline (percent)” value is 19%. In data set [8] (maximum at 28 h), the “maximum ocular surface hyperemia (OSH) score” value is recorded as 0.8. Besides, in data set [8] (maximum at 78 h), the “maximum intraocular pressure (IOP) decrease from baseline” value worked out at 5.2 mmHg and the “maximum intraocular pressure (IOP) decrease from baseline (percent)” value worked out at 32%.

Consider `O=C(O)c1ccc(CCCCNC(=O)c2cc(-c3cccc(F)c3)ccc2F)s1` [Compound 4, 5-(4-(3′,4-Difluoro-[1,1′-biphenyl]-3-ylcarboxamido)butyl)thiophene-2-carboxylic acid], for which the EC50 in data set [1], in data set [2] and in data set [4] was more than 10000 nM each time. Besides, the Ki was 6880 nM in data set [3] and 8640 nM in data set [5].

In the case of `O=C(NCCCc1ccc(C(=O)O)s1)c1cc(F)cc(-c2cccc(F)c2)c1` [Compound 7, 5-(3-(3′,5-Difluoro-[1,1′-biphenyl]-3-ylcarboxamido)propyl)thiophene-2-carboxylic acid], the EC50 in data set [1] was 37 nM; in data set [2], 5 nM; in data set [4] it was more than 10000 nM; in data set [6], 1420 nM. In addition, the Ki came to 126 nM in data set [3] and 814 nM in data set [5].

`O=C(NCCc1ccc(C(=O)O)s1)c1cc(F)cc(-c2cccc(F)c2)c1` [Compound 6, 5-(2-(3′,5-Difluoro-[1,1′-biphenyl]-3-ylcarboxamido)ethyl)thiophene-2-carboxylic acid]: the EC50 in data set [1] turned out to be 11 nM; in data set [2], 4 nM; in data set [4], 4440 nM; in data set [6], 4810 nM. The Ki in data set [3] amounted to 122 nM; in data set [5], 750 nM.

Consider `O=C(O)c1ccc(CCNC(=O)c2cc(-c3cccc(F)c3)ccc2F)s1` [Compound 1, 5-(2-(3′,4-Difluoro-[1,1′-biphenyl]-3-ylcarboxamido)ethyl)thiophene-2-carboxylic acid], for which the EC50 in data set [1] came out at 49 nM; in data set [2], 2 nM; in data set [4], 5140 nM; in data set [6], 8900 nM. Besides, the Ki in data set [3] stood at 63 nM; in data set [5] it was 648 nM.
